Measurements: patent US7056940B2, “Insecticidal 3-(2,6-disubstituted phenyl)-5-[5-arylthien-2-yl]-1,2,4-triazoles” (Dow AgroSciences LLC, priority 2001, dated 2006)

Row | melting point [°C] | Structure (SMILES)
1 | 135 to 136 | Cn1nc(-c2c(F)cccc2Cl)nc1-c1cc(-c2ccc(OC(F)(F)F)cc2)sc1Br [Example 3, 3-(2-Chloro-6-fluorophenyl)-5-[2-bromo-5-(4-trifluoromethoxyphenyl)thien-3-yl]-1-methyl-1H-1,2,4-triazole]
2 | 153 to 155 | Cc1sc(-c2ccc(OC(F)(F)F)cc2)cc1-c1nc(-c2c(F)cccc2Cl)nn1C [Example 4, 3-(2-Chloro-6-fluorophenyl)-5-[2-methyl-5-(4-trifluoromethoxyphenyl)thien-3-yl]-1-methyl-1H-1,2,4-triazole]

Row | Structure (SMILES) | melting point [°C]
3 | Cc1c(-c2nc(-c3c(F)cccc3Cl)nn2C)csc1-c1ccc(OC(F)(F)C(F)C(F)(F)F)cc1 (stereo not drawn) [Example 7, 3-(2-Chloro-6-fluorophenyl)-5-{5-[4-(1,1,2,3,3,3-hexafluoropropoxy)phenyl]-4-methylthien-3-yl}-1-methyl-1H-1,2,4-triazole] | 114 to 116
